Laboratory results taken from patent US10822310B2, “Prevention and treatment of human metabolic syndrome including type 2 diabetes, steatohepititis and related conditions using non-absorbable, orally administered compounds” (priority 2017, dated 2020).
Blank lines part the entries; values can stand above or below the compound they belong to.

Legend:
FATZO mice = assay: in vivo study in polygenic FATZO mouse model of metabolic syndrome, T2D and obesity
Description: (§1) In order to test the hypothesis that a non-absorbable compound which is confined to the GI tract can favorably affect metabolic syndrome T2D and related conditions in vivo studies were carried out with I/II using a polygenic mutant strain of mice that develop metabolic syndrome, T2D and obesity when fed a high fat (“Western type”) diet. This polygenic mouse model (“FATZO” mouse), developed by Eli Lilly Co. and PreClinOmics (now Crown Bio, Indianapolis, Ind.), has been described in detail (PLoS ONE, 12, 1-15 (2017). FATZO mice on a high fat diet generally gain weight, gradually become obese, and develop hyperglycemia, hypertension, glucose intolerance, insulin insensitivity and severe T2D. A group of FATZO mice were placed on a high fat diet (HFD) for an initial three-week ‘base’ period after which they were divided into two groups: Group 1 (the treated group) was maintained on a HFD along with 5 mg/day of I/II, administered in water by gavage. […] Blood glucose levels of the treated group were stabile and after six weeks about 50% below those of the untreated group. […] A third group of FATZO mice was maintained on a standard diet of ordinary mouse chow and also treated with 5 mg/day of I/II.

[1] = analysis of blood of treated mice by HPLC/mass spectrometry (absorption from GI tract); format: in vivo; details: treated FATZO mice
Description: as §1

GLP-1 = assay: in vitro protection of GLP-1 from methyl glyoxal (UPLC/TOF-MS); format: biochemical; details: 0.62 mM peptide, 30 mM phosphate buffer pH 7.4, 20 equiv methyl glyoxal, 37 degrees C, 3 hours, 5 equiv compound relative to methyl glyoxal
Description: In order to test further the hypothesis that intestinal peptide hormones might be compromised by the chemical action of gut microbial products, in vitro studies were carried out with GLP-1, PYY and Oxyntomodulin. For these studies methyl glyoxal was selected as electrophile because it is a well-known microbial metabolite and also relevant to metabolic syndrome, T2D and diabetic neuropathy; see Diabetes, 63, 50-52 (2014); Biochemical Soc. Transact, 42, 450-456 (2014); Clinical Sci., 128, 839-861 (2015); Hypertension, 56, 471-476 (2010). Methyl glyoxal has also been implicated in neurodegenerative diseases—see Neuroscience, 9, 1-12 (2015). […] Methyl glyoxal can be detected in blood in amounts that correlate with the severity of T2D. […]
The results of the in vitro studies that have been carried out using methyl glyoxal and each of three intestinal peptide hormones, GLP-1, PYY (a satiety-sensing hormone), and Oxyntomodulin, can be summarized as follows: • 1. […] The mixture was cooled to ambient temperature and analyzed by ultra-high pressure liquid chromatography (Agilent 1290 UPLC) coupled with detection by triple time of flight mass spectrometry (Scitex 5600 TRIPTOF mass spectrometer), each aliquot being diluted with 20% aqueous acetic acid. • 2. […]

[2] = rate studies of reaction with methyl glyoxal by reverse phase HPLC; details: pH 7, aqueous solution
[3] = standard diet of ordinary mouse chow, 5 mg/day, six weeks

- behavior (FATZO mice; [3]): completely normal behavior
- absorption from the GI tract after oral administration [1]: no detectable absorption
- test compound in blood ([1]; oral administration, HPLC/mass spectrometry): < 0.01 mg. per mouse
Structure (SMILES): NCc1nc2cc(S(=O)(=O)O)ccc2[nH]1 [I/II]
- fasting blood glucose level below that of untreated group (FATZO mice; high fat diet, 5 mg/day by gavage in water, after six weeks): about 50%
- body weight gain (FATZO mice; high fat diet, 5 mg/day by gavage, six weeks (untreated gained 2% per week)): no weight gain
- body weight gain (FATZO mice; [3]): no weight gain
- increase in fasting blood glucose levels (FATZO mice; [3]): no increase in fasting blood glucose levels
- GLP-1 remained unchanged (GLP-1): greater than 95%

Structure (SMILES): CN(C)C(=N)N=C(N)N [metformin]
- reactivity (rate) toward methyl glyoxal relative to N-tosyl-arginine methyl ester [2]: less than one-tenth the rate

- pKa (physchem): ~7.7
Structure (SMILES): NCc1nc2cc(S(=O)(=O)O)ccc2[nH]1 [I, 2-(Aminiomethyl)-1H-benzol[d]imidazole-5-sulfonate]
